Values belong to the compound of their own block, whether it stands above or below them. Activity calls are given as the source filed them.
Assays:
Type in all cases: functional
[1] = biological target: T1, Sentrin-specific protease 8 (Homo sapiens, UniProt Q96LD8); test: inhibition of human SENP8 cleavage activity – biochemical, luminescence, SAR follow-up (AID 504501)
T1 sequence (Q96LD8 whole entry): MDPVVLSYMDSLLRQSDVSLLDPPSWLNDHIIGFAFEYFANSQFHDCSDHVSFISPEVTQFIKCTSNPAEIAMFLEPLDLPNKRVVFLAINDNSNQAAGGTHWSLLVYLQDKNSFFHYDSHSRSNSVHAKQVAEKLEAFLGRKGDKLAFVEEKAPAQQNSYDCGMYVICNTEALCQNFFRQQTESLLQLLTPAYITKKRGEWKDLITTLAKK

Caspase-3 [2] = biological target: T2, Caspase-3 (Homo sapiens, UniProt P42574); test: inhibition of recombinant caspase-3 activity – biochemical, luminescence, set 2, selectivity assay for SENP protease inhibitor project, SAR follow-up (AID 588599)
T2 sequence (P42574 whole entry): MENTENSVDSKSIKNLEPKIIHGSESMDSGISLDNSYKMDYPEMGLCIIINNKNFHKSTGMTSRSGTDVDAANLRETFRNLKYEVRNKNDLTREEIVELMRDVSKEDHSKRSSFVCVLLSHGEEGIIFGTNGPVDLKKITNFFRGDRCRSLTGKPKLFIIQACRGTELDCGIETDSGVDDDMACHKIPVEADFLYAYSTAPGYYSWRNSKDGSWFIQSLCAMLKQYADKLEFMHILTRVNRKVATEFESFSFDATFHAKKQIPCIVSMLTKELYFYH

[3] = biological target: T1, Sentrin-specific protease 8; test: inhibition of sentrin protease 8 – biochemical, luminescence, set 2, SAR follow-up (AID 588601)
Caspase-3 [4] = biological target: T2, Caspase-3; test: SAR Analysis of small molecule inhibitors of Sentrin-specific proteases (SENPs) using a Caspase-3 Selectivity assay. [Related pubchem assays (depositor defined):AID2540, AID2599, AID434973, AID489001]
[5] = biological target: T3, Sentrin-specific protease 7 (Homo sapiens, UniProt Q9BQF6); test: inhibition of human SENP7 cleavage activity – biochemical, luminescence, set 2, SAR follow-up (AID 588600)
T3 sequence (Q9BQF6 whole entry): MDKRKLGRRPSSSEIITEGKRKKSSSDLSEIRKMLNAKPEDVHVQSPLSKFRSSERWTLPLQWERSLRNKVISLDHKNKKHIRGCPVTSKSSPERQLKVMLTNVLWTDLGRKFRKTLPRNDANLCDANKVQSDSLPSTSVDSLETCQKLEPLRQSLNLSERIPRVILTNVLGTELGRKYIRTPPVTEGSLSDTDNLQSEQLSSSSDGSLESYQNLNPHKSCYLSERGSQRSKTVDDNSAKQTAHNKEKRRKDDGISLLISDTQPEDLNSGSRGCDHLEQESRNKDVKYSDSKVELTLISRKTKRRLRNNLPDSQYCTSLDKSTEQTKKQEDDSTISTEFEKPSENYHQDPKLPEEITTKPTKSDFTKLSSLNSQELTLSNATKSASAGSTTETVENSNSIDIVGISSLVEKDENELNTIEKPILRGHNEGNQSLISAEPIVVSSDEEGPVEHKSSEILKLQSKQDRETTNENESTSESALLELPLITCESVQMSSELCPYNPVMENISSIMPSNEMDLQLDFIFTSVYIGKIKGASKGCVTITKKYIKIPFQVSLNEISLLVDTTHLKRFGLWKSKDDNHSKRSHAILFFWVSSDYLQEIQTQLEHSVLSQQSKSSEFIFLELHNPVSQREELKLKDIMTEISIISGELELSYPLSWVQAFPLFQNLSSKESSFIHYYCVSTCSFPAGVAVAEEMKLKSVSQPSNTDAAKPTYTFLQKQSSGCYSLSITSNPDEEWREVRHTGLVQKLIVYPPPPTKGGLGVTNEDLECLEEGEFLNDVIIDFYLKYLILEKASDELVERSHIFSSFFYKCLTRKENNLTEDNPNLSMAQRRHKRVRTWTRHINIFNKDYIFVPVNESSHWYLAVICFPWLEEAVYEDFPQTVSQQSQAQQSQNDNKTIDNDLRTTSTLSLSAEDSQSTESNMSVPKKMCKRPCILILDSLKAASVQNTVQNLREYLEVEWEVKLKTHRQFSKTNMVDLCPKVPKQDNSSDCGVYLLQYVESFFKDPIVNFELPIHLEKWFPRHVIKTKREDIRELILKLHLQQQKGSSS

[6] = biological target: T4, Sentrin-specific protease 6 (Homo sapiens, UniProt Q9GZR1); test: SAR Analysis of small molecule inhibitors of Sentrin-specific protease 6 (SENP6) using a Luminescent assay. [Related pubchem assays (depositor defined):AID2582, AID2599]
T4 sequence (Q9GZR1 whole entry): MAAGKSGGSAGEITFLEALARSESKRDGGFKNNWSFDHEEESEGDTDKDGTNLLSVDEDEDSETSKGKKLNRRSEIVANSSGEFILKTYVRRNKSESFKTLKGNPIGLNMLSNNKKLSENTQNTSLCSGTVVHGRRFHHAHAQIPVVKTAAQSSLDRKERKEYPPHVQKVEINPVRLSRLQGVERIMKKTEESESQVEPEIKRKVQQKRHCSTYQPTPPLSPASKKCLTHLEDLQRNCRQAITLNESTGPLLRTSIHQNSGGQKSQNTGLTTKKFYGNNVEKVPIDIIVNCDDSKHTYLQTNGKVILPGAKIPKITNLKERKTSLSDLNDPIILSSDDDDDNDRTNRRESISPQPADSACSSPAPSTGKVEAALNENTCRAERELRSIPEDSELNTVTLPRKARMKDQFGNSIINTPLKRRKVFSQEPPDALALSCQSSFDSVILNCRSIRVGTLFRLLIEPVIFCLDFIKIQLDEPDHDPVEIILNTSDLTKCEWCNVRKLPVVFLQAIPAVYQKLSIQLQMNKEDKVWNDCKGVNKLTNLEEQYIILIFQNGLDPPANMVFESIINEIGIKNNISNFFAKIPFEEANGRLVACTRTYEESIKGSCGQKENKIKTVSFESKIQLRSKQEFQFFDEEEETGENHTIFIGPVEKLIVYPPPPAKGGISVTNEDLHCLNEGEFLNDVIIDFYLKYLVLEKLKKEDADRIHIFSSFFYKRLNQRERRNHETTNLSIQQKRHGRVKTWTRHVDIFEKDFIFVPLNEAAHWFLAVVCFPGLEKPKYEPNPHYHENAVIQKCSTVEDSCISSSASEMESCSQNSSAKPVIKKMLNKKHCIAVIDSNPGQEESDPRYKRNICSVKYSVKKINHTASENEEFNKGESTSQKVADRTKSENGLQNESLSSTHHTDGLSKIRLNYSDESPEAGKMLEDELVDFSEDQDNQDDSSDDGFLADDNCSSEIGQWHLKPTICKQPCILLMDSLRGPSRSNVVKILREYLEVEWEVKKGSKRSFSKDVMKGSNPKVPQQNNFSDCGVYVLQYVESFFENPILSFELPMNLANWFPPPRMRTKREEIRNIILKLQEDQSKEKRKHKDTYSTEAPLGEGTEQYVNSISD

[7] = biological target: T4, Sentrin-specific protease 6; test: inhibition of human SENP6 catalytic domain – biochemical, luminescence, set 2, SAR follow-up (AID 588598)
[8] = biological target: T3, Sentrin-specific protease 7; test: inhibition of human SENP7 cleavage activity – biochemical, luminescence, SAR follow-up (AID 504497)
[9] = biological target: DNA dC->dU-editing enzyme APOBEC-3G (Homo sapiens, UniProt Q9HC16); test: inhibition of APOBEC3G ssDNA deamination – biochemical, fluorescence, single-stranded DNA substrate, SAR follow-up (AID 602136); conditions: read-out: IC50_Mean
Sequence of DNA dC->dU-editing enzyme APOBEC-3G (Q9HC16 whole entry): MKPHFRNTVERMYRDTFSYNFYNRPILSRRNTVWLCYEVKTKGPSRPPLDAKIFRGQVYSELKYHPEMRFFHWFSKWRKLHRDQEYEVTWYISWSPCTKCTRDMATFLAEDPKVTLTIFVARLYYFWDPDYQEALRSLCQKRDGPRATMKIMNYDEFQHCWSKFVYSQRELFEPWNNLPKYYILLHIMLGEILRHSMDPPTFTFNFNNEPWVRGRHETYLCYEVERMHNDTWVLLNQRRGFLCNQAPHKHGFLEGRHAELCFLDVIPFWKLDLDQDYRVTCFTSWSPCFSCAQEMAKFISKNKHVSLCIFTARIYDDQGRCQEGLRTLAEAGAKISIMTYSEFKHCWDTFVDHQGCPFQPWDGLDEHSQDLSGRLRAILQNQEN

[10] = biological target: DNA dC->dU-editing enzyme APOBEC-3A (Homo sapiens, UniProt P31941); test: SAR analysis of small molecule inhibitors of APOBEC3A DNA Deaminase via a fluorescence-based single-stranded DNA deaminase assay.; conditions: read-out: IC50_Mean
Sequence of DNA dC->dU-editing enzyme APOBEC-3A (P31941 whole entry): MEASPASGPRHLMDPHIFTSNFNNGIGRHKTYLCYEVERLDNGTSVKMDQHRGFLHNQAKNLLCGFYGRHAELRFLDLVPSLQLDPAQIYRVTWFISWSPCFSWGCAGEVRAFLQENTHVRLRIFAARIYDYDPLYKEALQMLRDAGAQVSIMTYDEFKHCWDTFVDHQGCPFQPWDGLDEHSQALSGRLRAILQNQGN

[11] = biological target: Mast/stem cell growth factor receptor Kit (Homo sapiens, UniProt P10721);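 further: KIT entry within a kinase panel assay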
Sequence of Mast/stem cell growth factor receptor Kit (P10721 whole entry): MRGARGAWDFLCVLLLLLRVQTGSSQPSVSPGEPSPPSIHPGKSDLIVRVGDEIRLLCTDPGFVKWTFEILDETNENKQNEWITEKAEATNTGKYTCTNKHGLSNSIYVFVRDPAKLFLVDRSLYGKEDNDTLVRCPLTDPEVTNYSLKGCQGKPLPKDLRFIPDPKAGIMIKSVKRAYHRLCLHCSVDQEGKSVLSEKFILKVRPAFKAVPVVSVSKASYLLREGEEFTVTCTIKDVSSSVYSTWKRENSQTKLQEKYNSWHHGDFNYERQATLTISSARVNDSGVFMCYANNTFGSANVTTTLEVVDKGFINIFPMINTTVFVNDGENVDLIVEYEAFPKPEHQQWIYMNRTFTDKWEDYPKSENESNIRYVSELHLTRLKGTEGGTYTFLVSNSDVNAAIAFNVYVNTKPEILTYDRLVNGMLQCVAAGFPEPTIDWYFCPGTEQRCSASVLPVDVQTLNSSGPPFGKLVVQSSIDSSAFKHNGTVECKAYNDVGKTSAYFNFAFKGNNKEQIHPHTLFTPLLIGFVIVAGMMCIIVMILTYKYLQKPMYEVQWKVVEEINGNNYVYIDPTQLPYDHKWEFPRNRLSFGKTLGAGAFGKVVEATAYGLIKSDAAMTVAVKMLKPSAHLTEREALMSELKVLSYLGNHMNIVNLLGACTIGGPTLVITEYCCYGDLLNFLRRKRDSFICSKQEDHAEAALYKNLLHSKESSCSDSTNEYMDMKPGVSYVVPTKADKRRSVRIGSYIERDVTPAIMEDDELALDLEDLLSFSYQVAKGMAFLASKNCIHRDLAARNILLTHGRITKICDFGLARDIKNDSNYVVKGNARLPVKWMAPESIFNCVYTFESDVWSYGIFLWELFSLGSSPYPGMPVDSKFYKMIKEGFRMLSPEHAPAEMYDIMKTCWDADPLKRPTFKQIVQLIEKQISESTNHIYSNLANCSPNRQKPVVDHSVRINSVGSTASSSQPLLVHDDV

[12] = biological target: Tyrosine-protein kinase Blk (Homo sapiens, UniProt P51451);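 further: obtained as one member of a kinome-wide kinase assay panel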
Sequence of Tyrosine-protein kinase Blk (P51451 whole entry): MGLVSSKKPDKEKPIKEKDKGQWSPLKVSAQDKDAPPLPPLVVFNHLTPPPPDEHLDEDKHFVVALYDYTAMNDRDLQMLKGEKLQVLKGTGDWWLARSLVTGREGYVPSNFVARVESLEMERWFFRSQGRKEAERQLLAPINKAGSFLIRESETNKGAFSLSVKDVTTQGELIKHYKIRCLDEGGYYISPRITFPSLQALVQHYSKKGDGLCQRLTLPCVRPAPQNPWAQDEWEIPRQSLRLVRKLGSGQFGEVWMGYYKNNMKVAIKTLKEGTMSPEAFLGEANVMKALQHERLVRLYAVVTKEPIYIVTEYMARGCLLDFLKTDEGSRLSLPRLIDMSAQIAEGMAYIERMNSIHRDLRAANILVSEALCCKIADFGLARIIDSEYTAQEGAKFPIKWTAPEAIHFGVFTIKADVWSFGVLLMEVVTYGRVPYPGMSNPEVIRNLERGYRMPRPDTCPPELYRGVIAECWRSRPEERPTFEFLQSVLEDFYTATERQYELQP

[13] = biological target: Tyrosine-protein kinase ABL1 (Homo sapiens, UniProt P00519)
Sequence of Tyrosine-protein kinase ABL1 (P00519 whole entry): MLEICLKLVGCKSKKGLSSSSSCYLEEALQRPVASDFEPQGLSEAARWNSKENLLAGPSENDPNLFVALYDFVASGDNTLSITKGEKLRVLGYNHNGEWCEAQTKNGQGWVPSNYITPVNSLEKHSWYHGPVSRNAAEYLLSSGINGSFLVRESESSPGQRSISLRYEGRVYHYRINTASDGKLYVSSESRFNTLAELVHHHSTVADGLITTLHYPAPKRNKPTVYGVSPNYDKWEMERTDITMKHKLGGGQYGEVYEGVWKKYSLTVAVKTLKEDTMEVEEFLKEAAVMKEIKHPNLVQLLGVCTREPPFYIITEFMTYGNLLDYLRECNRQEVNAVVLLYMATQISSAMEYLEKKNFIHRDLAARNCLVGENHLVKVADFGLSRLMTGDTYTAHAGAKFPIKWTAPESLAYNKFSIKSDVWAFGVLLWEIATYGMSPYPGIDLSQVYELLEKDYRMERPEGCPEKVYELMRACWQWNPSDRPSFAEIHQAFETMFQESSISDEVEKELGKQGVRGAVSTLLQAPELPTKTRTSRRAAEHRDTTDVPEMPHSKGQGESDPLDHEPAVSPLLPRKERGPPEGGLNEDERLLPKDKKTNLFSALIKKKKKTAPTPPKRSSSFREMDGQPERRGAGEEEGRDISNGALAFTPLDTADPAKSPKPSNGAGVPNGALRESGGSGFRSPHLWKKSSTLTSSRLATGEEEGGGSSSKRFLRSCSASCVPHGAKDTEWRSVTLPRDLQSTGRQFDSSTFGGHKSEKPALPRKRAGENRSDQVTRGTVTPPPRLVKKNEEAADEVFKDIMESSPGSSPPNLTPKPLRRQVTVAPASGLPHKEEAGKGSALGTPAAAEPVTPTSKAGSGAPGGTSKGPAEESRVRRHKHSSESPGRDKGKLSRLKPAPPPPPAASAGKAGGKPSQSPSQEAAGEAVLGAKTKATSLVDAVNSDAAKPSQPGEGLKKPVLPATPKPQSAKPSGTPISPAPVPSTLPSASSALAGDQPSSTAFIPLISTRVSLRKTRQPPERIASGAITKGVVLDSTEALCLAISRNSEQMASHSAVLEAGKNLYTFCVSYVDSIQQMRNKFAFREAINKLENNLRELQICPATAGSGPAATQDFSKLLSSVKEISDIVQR

[14] = biological target: Macrophage colony-stimulating factor 1 receptor (Homo sapiens, UniProt P07333);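 further: value comes from the Navigating the Kinome screening panel, CSF1R member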
Sequence of Macrophage colony-stimulating factor 1 receptor (P07333 whole entry): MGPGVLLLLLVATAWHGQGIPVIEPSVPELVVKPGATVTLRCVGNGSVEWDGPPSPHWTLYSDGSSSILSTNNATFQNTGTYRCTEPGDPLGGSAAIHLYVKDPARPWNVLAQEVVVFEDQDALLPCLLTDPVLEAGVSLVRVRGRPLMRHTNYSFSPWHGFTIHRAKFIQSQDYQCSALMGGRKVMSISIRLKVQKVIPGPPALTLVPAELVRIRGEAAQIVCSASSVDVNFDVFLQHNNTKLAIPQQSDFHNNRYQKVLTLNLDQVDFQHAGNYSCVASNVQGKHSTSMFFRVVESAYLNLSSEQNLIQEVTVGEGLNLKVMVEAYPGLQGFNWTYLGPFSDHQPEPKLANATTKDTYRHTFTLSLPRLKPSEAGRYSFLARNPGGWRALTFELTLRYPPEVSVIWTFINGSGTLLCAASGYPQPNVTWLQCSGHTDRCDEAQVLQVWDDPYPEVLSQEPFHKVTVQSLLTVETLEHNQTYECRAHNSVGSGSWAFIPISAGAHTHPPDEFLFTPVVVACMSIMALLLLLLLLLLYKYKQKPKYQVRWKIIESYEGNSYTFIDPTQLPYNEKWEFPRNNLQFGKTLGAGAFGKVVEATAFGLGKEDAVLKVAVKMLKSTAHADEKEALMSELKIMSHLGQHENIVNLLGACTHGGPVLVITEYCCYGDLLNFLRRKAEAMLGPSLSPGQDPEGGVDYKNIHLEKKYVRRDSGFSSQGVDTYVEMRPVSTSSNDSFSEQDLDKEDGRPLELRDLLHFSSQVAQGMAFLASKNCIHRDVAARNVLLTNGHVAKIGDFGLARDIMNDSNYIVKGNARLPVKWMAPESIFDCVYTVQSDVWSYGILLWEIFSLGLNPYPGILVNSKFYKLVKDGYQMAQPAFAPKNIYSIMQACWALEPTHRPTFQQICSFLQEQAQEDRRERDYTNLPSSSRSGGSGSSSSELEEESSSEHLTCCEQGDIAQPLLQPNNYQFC

[15] = biological target: T5, Short transient receptor potential channel 4 (Mus musculus, UniProt Q9QUQ5); test: block of DAMGO-driven TRPC4 calcium entry – cell-based, HEK293 TRPC4/mu-opioid, Fluo-4 calcium, dose response (AID 434942);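 further: potency of inhibitors blocking the TRPC4 calcium response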
T5 sequence (Q9QUQ5 whole entry): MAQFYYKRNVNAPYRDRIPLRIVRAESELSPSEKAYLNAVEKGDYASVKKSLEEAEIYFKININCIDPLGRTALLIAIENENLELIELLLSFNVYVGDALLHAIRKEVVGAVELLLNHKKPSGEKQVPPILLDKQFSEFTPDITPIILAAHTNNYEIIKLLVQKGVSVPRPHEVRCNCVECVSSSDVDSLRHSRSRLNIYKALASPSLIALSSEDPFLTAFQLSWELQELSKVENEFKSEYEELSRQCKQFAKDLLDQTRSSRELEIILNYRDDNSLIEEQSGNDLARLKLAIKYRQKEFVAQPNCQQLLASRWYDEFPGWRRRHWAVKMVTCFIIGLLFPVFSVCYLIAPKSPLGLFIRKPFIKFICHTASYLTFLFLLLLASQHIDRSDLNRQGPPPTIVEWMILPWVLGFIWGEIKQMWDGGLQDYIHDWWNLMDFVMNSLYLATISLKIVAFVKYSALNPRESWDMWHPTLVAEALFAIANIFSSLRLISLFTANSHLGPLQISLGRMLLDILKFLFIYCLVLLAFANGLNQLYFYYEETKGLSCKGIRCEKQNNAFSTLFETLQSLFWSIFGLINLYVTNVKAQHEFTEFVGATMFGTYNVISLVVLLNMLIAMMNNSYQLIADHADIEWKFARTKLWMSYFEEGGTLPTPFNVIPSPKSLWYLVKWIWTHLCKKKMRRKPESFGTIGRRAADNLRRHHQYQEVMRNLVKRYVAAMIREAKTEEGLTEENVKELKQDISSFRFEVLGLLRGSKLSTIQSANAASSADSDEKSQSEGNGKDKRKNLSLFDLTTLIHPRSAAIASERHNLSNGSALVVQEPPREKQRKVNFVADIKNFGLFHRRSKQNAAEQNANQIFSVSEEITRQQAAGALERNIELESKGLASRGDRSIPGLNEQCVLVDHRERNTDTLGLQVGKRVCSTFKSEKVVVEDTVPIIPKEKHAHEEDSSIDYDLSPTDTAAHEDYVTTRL

[16] = biological target: Protein disulfide-isomerase (Homo sapiens, UniProt P07237); test: inhibition of PDI-driven insulin aggregation – biochemical, turbidity, absorbance, cherry-picked samples, dose response (AID 602350)
Sequence of Protein disulfide-isomerase (P07237 whole entry): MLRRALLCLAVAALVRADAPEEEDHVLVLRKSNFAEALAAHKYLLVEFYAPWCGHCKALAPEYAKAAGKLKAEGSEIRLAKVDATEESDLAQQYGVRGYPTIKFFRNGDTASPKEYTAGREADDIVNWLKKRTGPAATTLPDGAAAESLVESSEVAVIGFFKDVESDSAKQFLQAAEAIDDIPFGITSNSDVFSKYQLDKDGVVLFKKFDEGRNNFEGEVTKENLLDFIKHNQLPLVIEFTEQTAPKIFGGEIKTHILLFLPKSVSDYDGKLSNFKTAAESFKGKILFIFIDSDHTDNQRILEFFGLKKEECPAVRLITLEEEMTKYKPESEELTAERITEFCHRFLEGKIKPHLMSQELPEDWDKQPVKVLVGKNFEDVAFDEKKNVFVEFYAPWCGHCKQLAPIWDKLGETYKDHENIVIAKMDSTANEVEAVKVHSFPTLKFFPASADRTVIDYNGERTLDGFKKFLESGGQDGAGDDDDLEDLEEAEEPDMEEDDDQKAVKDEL

IC50 (Caspase-3 [2]): 3020 nM (active) | IC50 (Caspase-3 [4]): 5000 nM (active) | IC50 [5]: 2090 nM (active) | IC50 [6]: 2100 nM (active) | IC50 [7]: 1830 nM (active) | IC50 [8]: 1700 nM (active)
SMILES: Fc1ccc(/C=C/c2nc(-c3ccccc3)no2)cc1
IC50 [1]: 16000 nM (active) | IC50 [3]: 1810 nM (active)

SMILES: Cc1ccc(N2C(=O)C(=O)N(CC(=O)c3ccc[nH]3)C2=O)c(C)c1
IC50 [9]: > 99000 nM (inactive) | IC50 [10]: > 99000 nM (inactive)

Ki [11]: 1 nM (active) | Ki [12]: 794 nM (active) | Ki [13]: > 631 nM (inactive) | Ki [14]: 2 nM (active)
SMILES: Cc1cc(C)cc(NC(=O)Nc2ccc(-c3ccnc4c3c(N)nn4C)cc2)c1

SMILES: CC(Cc1ccccc1Sc1ccccc1O)N(C)C (stereo unspecified)
EC50 [15]: 944 nM (active) | AC50 [16]: 15900 nM (active)

From ChEMBL document CHEMBL1201862, “PubChem BioAssay data set” (2004)
